Test results as given in patent US10774068B2, “Composition and methods for inhibiting mammalian sterile 20-like kinase 1” (The Scripps Research Institute, priority 2015, dated 2020).
Where two headings read alike, the source gives them in different places.

Columns and labels:
[1] = target: MST2 (Homo sapiens (Human), UniProt Q13188); assay: MST2 biochemical LanthaScreen Eu Kinase Binding Assay
Procedure: (§1) MST1 and MST2 biochemical LanthaScreen Eu Kinase Binding Assay was based on the binding and displacement of kinase tracer to the kinase of interest. Compounds in 1000×DMSO stock solution was dispensed using automated dispensing system (Labcyte) to 384 well Corning Microplate at 15 nL, 5 uL of Kinase buffer A was added to each well. Plates were shaken and incubated for 1 min to ensure well dissolution of compounds.

[2] = target: MST1 (Homo sapiens (Human), UniProt Q13043); assay: MST1 biochemical LanthaScreen Eu Kinase Binding Assay
Chain of MST1 (Q13043 whole entry): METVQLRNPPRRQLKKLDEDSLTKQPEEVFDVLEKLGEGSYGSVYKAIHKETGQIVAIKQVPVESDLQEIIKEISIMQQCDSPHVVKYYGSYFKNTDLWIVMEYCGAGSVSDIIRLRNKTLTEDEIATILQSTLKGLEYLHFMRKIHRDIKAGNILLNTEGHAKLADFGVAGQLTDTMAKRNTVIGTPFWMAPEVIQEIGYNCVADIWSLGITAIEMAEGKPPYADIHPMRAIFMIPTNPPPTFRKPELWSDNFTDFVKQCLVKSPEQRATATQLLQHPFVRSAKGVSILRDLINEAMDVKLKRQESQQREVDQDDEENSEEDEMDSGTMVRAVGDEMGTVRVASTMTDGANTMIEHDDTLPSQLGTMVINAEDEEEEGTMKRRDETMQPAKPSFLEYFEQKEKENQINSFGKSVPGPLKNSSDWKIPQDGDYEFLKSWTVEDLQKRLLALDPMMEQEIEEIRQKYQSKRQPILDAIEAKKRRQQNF
Procedure: as §1

[3] = read-out: Kinase Binding assay-MST2 IC50
[4] = read-out: Kinase Binding assay-MST1 IC50

Chain of MST2 (Q13188 whole entry): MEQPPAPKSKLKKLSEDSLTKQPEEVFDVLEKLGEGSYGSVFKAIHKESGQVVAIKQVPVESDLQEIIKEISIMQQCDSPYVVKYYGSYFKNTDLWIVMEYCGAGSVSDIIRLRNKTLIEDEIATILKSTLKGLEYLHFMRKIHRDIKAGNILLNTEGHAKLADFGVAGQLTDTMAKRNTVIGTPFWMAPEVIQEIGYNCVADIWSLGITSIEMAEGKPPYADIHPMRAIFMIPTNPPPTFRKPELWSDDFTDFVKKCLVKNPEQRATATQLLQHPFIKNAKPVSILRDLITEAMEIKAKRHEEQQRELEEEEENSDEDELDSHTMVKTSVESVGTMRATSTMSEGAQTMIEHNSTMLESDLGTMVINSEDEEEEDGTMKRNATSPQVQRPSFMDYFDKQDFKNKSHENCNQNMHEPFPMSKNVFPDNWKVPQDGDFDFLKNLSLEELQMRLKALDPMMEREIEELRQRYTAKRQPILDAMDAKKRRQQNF

SMILES | IC50 [2, 4] [µM] | further results
CCOc1cc2ncc(C#N)c(Nc3ccc(OCc4cccc(Br)n4)c(Cl)c3)c2cc1NC(=O)CCCN(C)C [Example 3] | < 0.1 | IC50 [1, 3]: < 0.1 µM
CCOc1cc2ncc(C#N)c(Nc3ccc(OCc4cccc(F)n4)c(Cl)c3)c2cc1NC(=O)CCCN(C)C [Example 4] | < 0.1 | IC50 [1, 3]: < 0.1 µM
CCOc1cc2ncc(C#N)c(Nc3ccc(OCc4cccc(C#N)n4)c(Cl)c3)c2cc1NC(=O)CCCN(C)C [Example 5] | < 0.1 | IC50 [1]: 0.1 to 1 µM
CCOc1cc2ncc(C#N)c(Nc3ccc(OCc4cccc(OC)n4)c(Cl)c3)c2cc1NC(=O)CCCN(C)C [Example 6] | – | IC50 [1]: 0.1 to 1 µM; IC50 [2]: 0.1 to 1 µM
CCOc1cc2ncc(C#N)c(Nc3ccc(OCc4ccccn4)c(Cl)c3)c2cc1NC(=O)CCCN(C)C [Example 8] | < 0.1 | IC50 [1]: 0.1 to 1 µM
CCOc1cc2ncc(C#N)c(Nc3ccc(OCc4ccccn4)c(F)c3)c2cc1NC(=O)CCCN(C)C [Example 9] | 0.1 to 1 | IC50 [1]: 0.1 to 1 µM
CCOc1cc2ncc(C#N)c(Nc3ccc(OCc4cc(C)ccn4)c(Cl)c3)c2cc1NC(=O)CCCN(C)C [Example 10] | < 0.1 | IC50 [1]: 0.1 to 1 µM
CCOc1cc2ncc(C#N)c(Nc3ccc(OCc4ccc(C)cn4)c(Cl)c3)c2cc1NC(=O)CCCN(C)C [Example 11] | 0.1 to 1 | IC50 [1, 3]: < 0.1 µM
CCOc1cc2ncc(C#N)c(Nc3ccc(OCc4ccc(F)cn4)c(Cl)c3)c2cc1NC(=O)CCCN(C)C [Example 13] | – | IC50 [1]: 0.1 to 1 µM; IC50 [2]: 0.1 to 1 µM
CCOc1cc2ncc(C#N)c(Nc3ccc(OCc4ccc(Cl)cn4)c(Cl)c3)c2cc1NC(=O)CCCN(C)C [Example 14] | – | IC50 [1]: 0.1 to 1 µM; IC50 [2]: 0.1 to 1 µM
CCOc1cc2ncc(C#N)c(Nc3ccc(OCc4ncccc4Br)c(Cl)c3)c2cc1NC(=O)CCCN(C)C [Example 15] | < 0.1 | IC50 [1, 3]: < 0.1 µM
CCOc1cc2ncc(C#N)c(Nc3ccc(OCc4ncccc4C(F)(F)F)c(Cl)c3)c2cc1NC(=O)CCCN(C)C [Example 17] | < 0.1 | IC50 [1, 3]: < 0.1 µM
CCOc1cc2ncc(C#N)c(Nc3ccc(OCc4ccccn4)cc3)c2cc1NC(=O)CCCN(C)C [Example 47] | 0.1 to 1 | –
CCOc1cc2ncc(C#N)c(Nc3ccc(OCc4cccnc4)cc3)c2cc1NC(=O)CCCN(C)C [Example 51] | 1 to 10 | –
CCOc1cc2ncc(C#N)c(Nc3ccc(OCCc4c(C)noc4C)c(Cl)c3)c2cc1NC(=O)CCCN(C)C [Example 66] | 0.1 to 1 | –
CCOc1cc2ncc(C#N)c(Nc3ccc(OCc4cc(-c5ccc(C)cc5)on4)c(Cl)c3)c2cc1NC(=O)CCCN(C)C [Example 73] | 0.1 to 1 | –
CCOc1cc2ncc(C#N)c(Nc3ccc(OCc4ccccn4)c(Cl)c3)c2cc1NC(=O)CCCN1CCN(C)CC1 [Example 98] | < 0.1 | –

SMILES | IC50 [2, 4] [µM] | further results
CCOc1cc2ncc(C#N)c(Nc3ccc(OCc4ccccn4)c(Cl)c3)c2cc1NC(=O)CC [Example 101] | 1 to 10 | –
CCOc1cc2ncc(C#N)c(Nc3ccc(NC(=O)c4ccccc4)c(Cl)c3)c2cc1NC(=O)CCCN(C)C [Example 109, N-(2-chloro-4-(3-cyano-6-(4-(dimethylamino)butanamido)-7-ethoxyquinolin-4-ylamino)phenyl)benzamide] | 0.1 to 1 | –
CCOc1cc2ncc(C#N)c(Nc3ccc(NC(C)(C)c4ccccn4)c(Cl)c3)c2cc1NC(=O)CCCN(C)C [Example 113] | 1 to 10 | –
CCOc1cc2ncc(C#N)c(Nc3ccc(NC(C)c4ccccc4)c(Cl)c3)c2cc1NC(=O)CCCN(C)C (centres unmarked) [Example 114] | 1 to 10 | –
CCOc1cc2ncc(C#N)c(Nc3ccccc3)c2cc1NC(C)=O [Example 115, N-(3-cyano-7-ethoxy-4-(phenylamino)quinolin-6-yl)acetamide] | 1 to 10 | –
CCOc1cc2ncc(C#N)c(N(C)c3ccccc3)c2cc1NC(C)=O [Example 116] | 1 to 10 | –
CCOc1cc2ncc(C#N)c(Nc3ccccc3F)c2cc1NC(C)=O [Example 118] | 0.1 to 1 | –
CCOc1cc2ncc(C#N)c(Nc3ccc(C)cc3)c2cc1NC(C)=O [Example 120] | 0.1 to 1 | –
CCOc1cc2ncc(C#N)c(Nc3ccc(OC)cc3)c2cc1NC(C)=O [Example 121] | 0.1 to 1 | –
CCOc1cc2ncc(C#N)c(Nc3ccc(Cl)cc3)c2cc1NC(C)=O [Example 122] | 1 to 10 | –
CCOc1cc2ncc(C#N)c(Nc3ccc(C#N)cc3)c2cc1NC(C)=O [Example 129] | 1 to 10 | –
CCOc1cc2ncc(C#N)c(Nc3cccc(C)c3)c2cc1NC(C)=O [Example 130] | 1 to 10 | –
CCOc1cc2ncc(C#N)c(Nc3cccc(OC)c3)c2cc1NC(C)=O [Example 131] | 0.1 to 1 | –
CCOc1cc2ncc(C#N)c(Nc3cccc(S(C)(=O)=O)c3)c2cc1NC(C)=O [Example 134] | 1 to 10 | –
CCOc1cc2ncc(C#N)c(Nc3ccc(OC)c(Cl)c3)c2cc1NC(C)=O [Example 136] | 0.1 to 1 | –
CCOc1cc2ncc(C#N)c(Nc3cccc(Cl)c3)c2cc1NC(=O)CCCN(C)C [Example 137, N-(4-(3-chlorophenylamino)-3-cyano-7-ethoxyquinolin-6-yl)-4-(dimethylamino)butanamide] | 1 to 10 | –
CCOc1cc2ncnc(Nc3ccc(OCc4ncccc4C)cc3Cl)c2cc1NC(=O)CCCN(C)C [Example 146, N-(4-(2-chloro-4-((3-methylpyridin-2-yl)methoxy)phenylamino)-7-ethoxyquinazolin-6-yl)-4-(dimethylamino)butanamide] | 1 to 10 | –

More lines, main results first:

IC50 [2, 4] [µM] | SMILES | further results
< 0.1 | CCOc1cc2ncc(C#N)c(Nc3ccc(OCc4ncccc4C)c(Cl)c3)c2cc1NC(=O)CCCN(C)C [Example 1] | IC50 [1, 3]: < 0.1 µM
< 0.1 | CCOc1cc2ncc(C#N)c(Nc3ccc(OCc4cc(Cl)ccn4)c(Cl)c3)c2cc1NC(=O)CCCN(C)C [Example 2] | IC50 [1, 3]: < 0.1 µM
< 0.1 | CCOc1cc2ncc(C#N)c(Nc3ccc(OCc4cccc(Cl)n4)c(Cl)c3)c2cc1NC(=O)CCCN(C)C [Example 7] | IC50 [1, 3]: < 0.1 µM
< 0.1 | CCOc1cc2ncc(C#N)c(Nc3ccc(OCc4cccc(C)n4)c(Cl)c3)c2cc1NC(=O)CCCN(C)C [Example 12] | IC50 [1, 3]: < 0.1 µM
< 0.1 | CCOc1cc2ncc(C#N)c(Nc3ccc(OCc4ncccc4F)c(Cl)c3)c2cc1NC(=O)CCCN(C)C [Example 16] | IC50 [1, 3]: < 0.1 µM
0.1 to 1 | CCOc1cc2ncc(C#N)c(Nc3ccc(OCc4ccccc4)c(Cl)c3)c2cc1NC(=O)CCCN(C)C [Example 46] | –
0.1 to 1 | CCOc1cc2ncc(C#N)c(Nc3ccc(OCc4ccccn4)c(C)c3)c2cc1NC(=O)CCCN(C)C [Example 48] | –
1 to 10 | CCOc1cc2ncc(C#N)c(Nc3ccc(OCc4cccnc4)c(Cl)c3)c2cc1NC(=O)CCCN(C)C [Example 49] | –
1 to 10 | CCOc1cc2ncc(C#N)c(Nc3ccc(OCc4ccncc4)c(Cl)c3)c2cc1NC(=O)CCCN(C)C [Example 50] | –
0.1 to 1 | CCOc1cc2ncc(C#N)c(Nc3ccc(OCc4ccc(C(F)(F)F)cn4)c(Cl)c3)c2cc1NC(=O)CCCN(C)C [Example 53] | –
0.1 to 1 | CCOc1cc2ncc(C#N)c(Nc3ccc(OCc4cccc(C(F)(F)F)n4)c(Cl)c3)c2cc1NC(=O)CCCN(C)C [Example 54] | –
0.1 to 1 | CCOc1cc2ncc(C#N)c(Nc3ccc(OCc4cc(C(F)(F)F)ccn4)c(Cl)c3)c2cc1NC(=O)CCCN(C)C [Example 55] | –
0.1 to 1 | CCOc1cc2ncc(C#N)c(Nc3ccc(OCc4ccc(OC)cn4)c(Cl)c3)c2cc1NC(=O)CCCN(C)C [Example 56] | –
0.1 to 1 | CCOc1ccc(COc2ccc(Nc3c(C#N)cnc4cc(OCC)c(NC(=O)CCCN(C)C)cc34)cc2Cl)nc1 [Example 57] | –
0.1 to 1 | CCOc1cc2ncc(C#N)c(Nc3ccc(OCc4ccc(C(=O)OC)cn4)c(Cl)c3)c2cc1NC(=O)CCCN(C)C [Example 58] | –
1 to 10 | CCOc1cc2ncc(C#N)c(Nc3ccc(OCc4ccc5c(n4)OCCC5)c(Cl)c3)c2cc1NC(=O)CCCN(C)C [Example 59] | –
0.1 to 1 | CCOc1cc2ncc(C#N)c(Nc3ccc(OCc4cnc(C)cn4)c(Cl)c3)c2cc1NC(=O)CCCN(C)C [Example 60] | –
1 to 10 | CCOc1cc2ncc(C#N)c(Nc3ccc(OCCCn4cncn4)c(Cl)c3)c2cc1NC(=O)CCCN(C)C [Example 61] | –
0.1 to 1 | CCOc1cc2ncc(C#N)c(Nc3ccc(OCc4cnc5cccnc5c4)c(Cl)c3)c2cc1NC(=O)CCCN(C)C [Example 63] | –
0.1 to 1 | CCOc1cc2ncc(C#N)c(Nc3ccc(OCCn4ccc(C)n4)c(Cl)c3)c2cc1NC(=O)CCCN(C)C [Example 64] | –
0.1 to 1 | CCOc1cc2ncc(C#N)c(Nc3ccc(OCc4cccnn4)c(Cl)c3)c2cc1NC(=O)CCCN(C)C [Example 68] | –
0.1 to 1 | CCOc1cc2ncc(C#N)c(Nc3ccc(OCc4cocn4)c(Cl)c3)c2cc1NC(=O)CCCN(C)C [Example 69] | –
0.1 to 1 | CCOc1cc2ncc(C#N)c(Nc3ccc(OCc4nc(C(C)C)no4)c(Cl)c3)c2cc1NC(=O)CCCN(C)C [Example 70] | –
0.1 to 1 | CCOc1cc2ncc(C#N)c(Nc3ccc(OCc4cc5ncccc5o4)c(Cl)c3)c2cc1NC(=O)CCCN(C)C [Example 71] | –
0.1 to 1 | CCOc1cc2ncc(C#N)c(Nc3ccc(OCc4ncccc4-c4ccccc4)c(Cl)c3)c2cc1NC(=O)CCCN(C)C [Example 72] | –
< 0.1 | CCOc1cc2ncc(C#N)c(Nc3ccc(OCc4ccccn4)c(Cl)c3)c2cc1NC(=O)CCN(C)C [Example 96] | –
0.1 to 1 | CCOc1cc2ncc(C#N)c(Nc3ccc(NCc4ccccn4)c(Cl)c3)c2cc1NC(=O)CCCN(C)C [Example 111, N-(4-(3-chloro-4-(pyridin-2-ylmethylamino)phenylamino)-3-cyano-7-ethoxyquinolin-6-yl)-4-(dimethylamino)butanamide] | –
1 to 10 | CCOc1cc2ncc(C#N)c(Nc3ccc(NC(C)c4ccccn4)c(Cl)c3)c2cc1NC(=O)CCCN(C)C (centres unmarked) [Example 112] | –
1 to 10 | CCOc1cc2ncc(C#N)c(Nc3ccc(OC)c(Cl)c3)c2cc1NC(=O)CCCN(C)C [Example 138] | –
